Experimental data reported in PubChem BioAssay (NCI).
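Interpolation was linear, between the two tested concentrations surrounding the appropriate level; five concentrations were tested over 48 hours in 96-well plates. TGI is the concentration that stops growth completely.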

Experiments:
Experiment in all cases: NCI-60 cell line screen, 48 h
786-0 renal = tested on: 786-0 renal
A498 renal = tested on: A498 renal
A549 NSCLC = tested on: A549 NSCLC
ACHN renal = tested on: ACHN renal
BT-549 breast = tested on: BT-549 breast
CAKI-1 renal = tested on: CAKI-1 renal
COLO 205 colon = tested on: COLO 205 colon
DU-145 prostate = tested on: DU-145 prostate
EKVX NSCLC = tested on: EKVX NSCLC
HCC-2998 colon = tested on: HCC-2998 colon
HCT-116 colon = tested on: HCT-116 colon
HCT-15 colon = tested on: HCT-15 colon
HL-60(TB) leukemia = tested on: HL-60(TB) leukemia
HOP-62 NSCLC = tested on: HOP-62 NSCLC
HOP-92 NSCLC = tested on: HOP-92 NSCLC
HS 578T breast = tested on: HS 578T breast
HT29 colon = tested on: HT29 colon
IGROV1 ovarian = tested on: IGROV1 ovarian
K-562 leukemia = tested on: K-562 leukemia
KM12 colon = tested on: KM12 colon
LOX IMVI melanoma = tested on: LOX IMVI melanoma
M14 melanoma = tested on: M14 melanoma
MALME-3M melanoma = tested on: MALME-3M melanoma
MCF7 breast = tested on: MCF7 breast
MDA-MB-231 breast = tested on: MDA-MB-231 breast
MDA-MB-435 = tested on: MDA-MB-435
MDA-N = tested on: MDA-N
NCI-H226 lung = tested on: NCI-H226 lung
NCI-H23 lung = tested on: NCI-H23 lung
NCI-H460 lung = tested on: NCI-H460 lung
NCI-H522 lung = tested on: NCI-H522 lung
NCI/ADR-RES ovarian = tested on: NCI/ADR-RES ovarian
OVCAR-3 ovarian = tested on: OVCAR-3 ovarian
OVCAR-4 ovarian = tested on: OVCAR-4 ovarian
OVCAR-5 ovarian = tested on: OVCAR-5 ovarian
OVCAR-8 ovarian = tested on: OVCAR-8 ovarian
PC-3 prostate = tested on: PC-3 prostate
RXF 393 renal = tested on: RXF 393 renal
SF-268 CNS = tested on: SF-268 CNS
SF-295 CNS = tested on: SF-295 CNS
SF-539 CNS = tested on: SF-539 CNS
SK-MEL-2 melanoma = tested on: SK-MEL-2 melanoma
SK-MEL-5 melanoma = tested on: SK-MEL-5 melanoma
SK-OV-3 ovarian = tested on: SK-OV-3 ovarian
SN12C renal = tested on: SN12C renal
SNB-19 CNS = tested on: SNB-19 CNS
SNB-75 CNS = tested on: SNB-75 CNS
SW-620 colon = tested on: SW-620 colon
TK-10 renal = tested on: TK-10 renal
U251 CNS = tested on: U251 CNS
UACC-257 melanoma = tested on: UACC-257 melanoma
UACC-62 melanoma = tested on: UACC-62 melanoma
UO-31 renal = tested on: UO-31 renal
CCRF-CEM leukemia = tested on: CCRF-CEM leukemia
MOLT-4 leukemia = tested on: MOLT-4 leukemia
RPMI-8226 leukemia = tested on: RPMI-8226 leukemia
SK-MEL-28 melanoma = tested on: SK-MEL-28 melanoma
SR leukemia = tested on: SR leukemia

For `O=C1C=CC2(O[C@H](c3ccccc3)[C@@H](c3ccccc3)O2)[C@H](Sc2ccccc2O)C1`, the TGI (786-0 renal) was 0.356 µM, the TGI (A498 renal) was 5.15 µM and the TGI (A549 NSCLC) was 16.4 µM. The TGI (ACHN renal) was 1.07 µM, the TGI (BT-549 breast) was 1.46 µM and the TGI (CAKI-1 renal) was 0.886 µM. For the same compound, the TGI (COLO 205 colon) was 1.62 µM, the TGI (DU-145 prostate) was 2.59 µM and the TGI (EKVX NSCLC) was 3.31 µM. The TGI (HCC-2998 colon) was 1.63 µM, the TGI (HCT-116 colon) was 0.309 µM and the TGI (HCT-15 colon) was 0.507 µM. It also gave a TGI (HL-60(TB) leukemia) of 2.82 µM, a TGI (HOP-62 NSCLC) of 3.98 µM and a TGI (HOP-92 NSCLC) of 1.32 µM. It also gave a TGI (HS 578T breast) of 7.88 µM, a TGI (HT29 colon) of 1.45 µM and a TGI (IGROV1 ovarian) of 0.593 µM. The TGI (K-562 leukemia) was 78.2 µM, the TGI (KM12 colon) was 6.45 µM and the TGI (LOX IMVI melanoma) was 0.338 µM. For the same compound, the TGI (M14 melanoma) was 0.609 µM, the TGI (MALME-3M melanoma) was 0.907 µM and the TGI (MCF7 breast) was 2.44 µM. It also gave a TGI (MDA-MB-231 breast) of 2.22 µM, a TGI (MDA-MB-435) of 0.982 µM and a TGI (MDA-N) of 1.13 µM. The TGI (NCI-H226 lung) was 5.43 µM, the TGI (NCI-H23 lung) was 2.39 µM and the TGI (NCI-H460 lung) was 8.95 µM. For the same compound, the TGI (NCI-H522 lung) was 0.182 µM, the TGI (NCI/ADR-RES ovarian) was 10 µM and the TGI (OVCAR-3 ovarian) was 1.51 µM. The TGI (OVCAR-4 ovarian) was 2.43 µM, the TGI (OVCAR-5 ovarian) was 4.49 µM and the TGI (OVCAR-8 ovarian) was 0.217 µM. For the same compound, the TGI (PC-3 prostate) was 2.06 µM, the TGI (RXF 393 renal) was 0.524 µM and the TGI (SF-268 CNS) was 0.964 µM. The TGI (SF-295 CNS) was 15.6 µM, the TGI (SF-539 CNS) was 1.7 µM and the TGI (SK-MEL-2 melanoma) was 4.63 µM. The TGI (SK-MEL-5 melanoma) was 2.22 µM, the TGI (SK-OV-3 ovarian) was 11.8 µM and the TGI (SN12C renal) was 0.353 µM. It also gave a TGI (SNB-19 CNS) of 3.74 µM, a TGI (SNB-75 CNS) of 8.16 µM and a TGI (SW-620 colon) of over 100 µM. It also gave a TGI (TK-10 renal) of 0.966 µM, a TGI (U251 CNS) of 1.78 µM and a TGI (UACC-257 melanoma) of 1.71 µM. For the same compound, the TGI (UACC-62 melanoma) was 2.13 µM and the TGI (UO-31 renal) was 1.22 µM.

In the case of `CCOC(=O)/C=C/c1nc(C#N)c(N)o1`, the TGI (786-0 renal) is reported as over 100 µM, the TGI (A498 renal) is reported as over 100 µM and the TGI (A549 NSCLC) is reported as over 100 µM. For the same compound, the TGI (ACHN renal) was over 100 µM, the TGI (CAKI-1 renal) was over 100 µM and the TGI (CCRF-CEM leukemia) was over 100 µM. It also gave a TGI (DU-145 prostate) of over 100 µM, a TGI (EKVX NSCLC) of over 100 µM and a TGI (HCT-116 colon) of over 100 µM. It also gave a TGI (HCT-15 colon) of over 100 µM, a TGI (HL-60(TB) leukemia) of over 100 µM and a TGI (HOP-62 NSCLC) of over 100 µM. The TGI (HOP-92 NSCLC) was over 100 µM, the TGI (HS 578T breast) was over 100 µM and the TGI (HT29 colon) was over 100 µM. It also gave a TGI (IGROV1 ovarian) of over 100 µM, a TGI (K-562 leukemia) of over 100 µM and a TGI (KM12 colon) of over 100 µM. For the same compound, the TGI (LOX IMVI melanoma) was over 100 µM, the TGI (M14 melanoma) was over 100 µM and the TGI (MCF7 breast) was over 100 µM. It also gave a TGI (MDA-MB-231 breast) of over 100 µM, a TGI (MDA-MB-435) of over 100 µM and a TGI (MDA-N) of over 100 µM. The TGI (MOLT-4 leukemia) was over 100 µM, the TGI (OVCAR-5 ovarian) was over 100 µM and the TGI (OVCAR-8 ovarian) was over 100 µM. For the same compound, the TGI (PC-3 prostate) was over 100 µM, the TGI (RPMI-8226 leukemia) was over 100 µM and the TGI (RXF 393 renal) was over 100 µM. For the same compound, the TGI (SF-268 CNS) was over 100 µM, the TGI (SK-MEL-2 melanoma) was over 100 µM and the TGI (SK-MEL-28 melanoma) was over 100 µM. The TGI (SK-MEL-5 melanoma) was over 100 µM, the TGI (SK-OV-3 ovarian) was over 100 µM and the TGI (SN12C renal) was over 100 µM. It also gave a TGI (SNB-19 CNS) of over 100 µM, a TGI (SNB-75 CNS) of over 100 µM and a TGI (SR leukemia) of over 100 µM. For the same compound, the TGI (SW-620 colon) was over 100 µM, the TGI (TK-10 renal) was over 100 µM and the TGI (U251 CNS) was over 100 µM. It also gave a TGI (UACC-257 melanoma) of over 100 µM, a TGI (UACC-62 melanoma) of over 100 µM and a TGI (UO-31 renal) of over 100 µM.
